The values below come from patent publication US20200369626A1 (Washington University, priority 2019, published 2020).

Where two headings read alike, the source gives them in different places.

Data set [1] has as its system Experimental autoimmune encephalomyelitis (EAE). As to the kind of experiment: EAE clinical score in immunized mice, osmotic pump treatment. In kind it is in vivo, female SJL/J mice. The note with it: from day 9 postimmunization.
The target of data set [2] is T1, S1PR2 (Homo sapiens, UniProt O95136).
T1 construct: purchased
T1 sequence (O95136 whole entry): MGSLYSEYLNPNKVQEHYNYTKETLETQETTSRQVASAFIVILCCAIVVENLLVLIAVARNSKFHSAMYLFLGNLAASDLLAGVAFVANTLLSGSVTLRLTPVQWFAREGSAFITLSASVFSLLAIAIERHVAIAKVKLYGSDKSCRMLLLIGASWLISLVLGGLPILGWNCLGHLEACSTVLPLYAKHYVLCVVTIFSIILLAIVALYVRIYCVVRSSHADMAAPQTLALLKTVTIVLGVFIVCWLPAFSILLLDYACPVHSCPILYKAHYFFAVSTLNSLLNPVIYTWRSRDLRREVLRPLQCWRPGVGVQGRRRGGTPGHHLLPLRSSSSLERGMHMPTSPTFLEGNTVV
As to the kind of experiment: competitive [^32P]S1P binding assay on cell membranes, S1PR2.

For data set [3], the target named is T2, S1PR4 (Homo sapiens, UniProt O95977).
T2 construct: purchased
T2 sequence (O95977 1-384): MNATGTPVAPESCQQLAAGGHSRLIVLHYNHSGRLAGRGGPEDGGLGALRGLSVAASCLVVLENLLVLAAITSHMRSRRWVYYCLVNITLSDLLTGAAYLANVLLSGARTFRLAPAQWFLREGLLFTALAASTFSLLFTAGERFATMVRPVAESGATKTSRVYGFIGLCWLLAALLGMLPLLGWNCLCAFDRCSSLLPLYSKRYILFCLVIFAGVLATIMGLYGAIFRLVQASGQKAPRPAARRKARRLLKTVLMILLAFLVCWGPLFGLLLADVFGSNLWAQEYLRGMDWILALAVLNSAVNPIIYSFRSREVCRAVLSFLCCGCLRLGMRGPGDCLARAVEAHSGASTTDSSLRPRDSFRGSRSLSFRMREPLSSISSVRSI
Put plainly: competitive [^32P]S1P binding assay on cell membranes, S1PR4. Here is the method:
(§1) The test compounds were dissolved in DMSO and diluted into test samples with increasing concentrations with assay buffer. Commercial cell membranes expressing recombinant human S1PR were diluted with assay buffer to make a 20-40 μg/mL of solution. […] The plate was incubated for 60 min at room temperature with shaking and terminated by collecting the membranes onto 96-well glass fiber (GF/B) filtration plates (Millipore, Billerica, Mass.). Each filter was washed with 200 μL of assay buffer for a total of five washes. The filter bound radionuclide was measured by a Beckman LS 3801 scintillation counter using Cherenkov counting. The IC50 values were fitted from GraphPad Prism 6 using one site Nonlinear Regression.

The target of data set [4] is T3, S1PR1 (Homo sapiens, UniProt P21453).
T3 construct: purchased
T3 sequence (P21453 whole entry): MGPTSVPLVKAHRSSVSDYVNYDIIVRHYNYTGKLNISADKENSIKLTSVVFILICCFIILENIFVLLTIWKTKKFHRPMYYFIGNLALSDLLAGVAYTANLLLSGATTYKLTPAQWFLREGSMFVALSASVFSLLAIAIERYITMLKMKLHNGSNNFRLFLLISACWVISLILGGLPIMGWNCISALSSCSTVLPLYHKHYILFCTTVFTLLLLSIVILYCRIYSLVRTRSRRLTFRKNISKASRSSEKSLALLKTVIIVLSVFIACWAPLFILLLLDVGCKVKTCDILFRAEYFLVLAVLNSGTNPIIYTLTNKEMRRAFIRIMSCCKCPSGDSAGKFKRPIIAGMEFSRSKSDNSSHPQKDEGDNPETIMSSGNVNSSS
As to the kind of experiment: competitive [^32P]S1P binding assay on cell membranes, S1PR1. Here is the method:
as §1

The target in data set [5] is T4, S1PR5 (Homo sapiens, UniProt Q9H228).
T4 construct: purchased
T4 sequence (Q9H228 whole entry): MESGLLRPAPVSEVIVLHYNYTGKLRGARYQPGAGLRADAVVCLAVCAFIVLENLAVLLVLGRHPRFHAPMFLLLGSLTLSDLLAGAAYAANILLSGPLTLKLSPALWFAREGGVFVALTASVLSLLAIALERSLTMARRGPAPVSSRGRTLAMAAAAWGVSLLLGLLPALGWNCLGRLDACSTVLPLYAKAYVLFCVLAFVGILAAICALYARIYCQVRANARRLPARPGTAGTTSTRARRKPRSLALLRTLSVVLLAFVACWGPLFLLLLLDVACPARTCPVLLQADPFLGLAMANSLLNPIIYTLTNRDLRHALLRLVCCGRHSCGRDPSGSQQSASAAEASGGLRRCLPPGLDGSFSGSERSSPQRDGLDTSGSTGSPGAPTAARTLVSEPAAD
As to the kind of experiment: competitive [^32P]S1P binding assay on cell membranes, S1PR5.

Data set [6] concerns the target T5, S1PR3 (Homo sapiens, UniProt Q99500).
T5 construct: purchased
As to the kind of experiment: competitive [^32P]S1P binding assay on cell membranes, S1PR3. On the procedure:
as §1

Data set [7] is described as follows: biodistribution study of [^11C]2c in EAE and control mice. The data set is classed as in vivo, female SJL mice. The note with it: for tissue uptake: female, SJL, mouse, brain, other: injection. On the procedure: A biodistribution study was conducted in female SJL EAE mice and control mice (at 9 weeks, n=4 for each group) to determine the tissue accumulation of the radiotracer post-injection of the dose.

The mark [8] stands for this setting: [^32P]S1P competition, read-out: IC50 value, S1PR2 binding.
[9] abbreviates: [^32P]S1P competition, Table 2, read-out: IC50 S1PR2.

T5 sequence (Q99500 whole entry): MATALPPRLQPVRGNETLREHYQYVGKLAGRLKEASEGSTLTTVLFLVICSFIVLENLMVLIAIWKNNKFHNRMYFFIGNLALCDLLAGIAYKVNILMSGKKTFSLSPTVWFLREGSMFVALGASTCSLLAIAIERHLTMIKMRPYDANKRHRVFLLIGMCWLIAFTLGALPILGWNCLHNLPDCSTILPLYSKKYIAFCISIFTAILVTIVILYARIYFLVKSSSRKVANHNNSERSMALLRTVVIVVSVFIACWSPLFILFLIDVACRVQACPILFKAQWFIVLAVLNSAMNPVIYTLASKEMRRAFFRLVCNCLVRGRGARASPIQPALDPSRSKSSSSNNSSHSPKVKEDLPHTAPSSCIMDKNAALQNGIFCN

Broadly, the IC50 is the concentration that inhibits the measured activity by half. As for `COc1ccc(NC(=O)Cn2c(=O)c3ccccc3n(CC(=O)Nc3cc(Cl)c(OC)cc3OC)c2=O)cc1` [Compound 2c], the “EAE disease course (clinical score)” value in data set [1] (1 mg/kg, p<0.0002) was “significant improvement of EAE disease course”; in data set [1] (5 mg/kg, p<0.0001), “significant improvement of EAE disease course”. Further, the IC50 in data set [2] (setting [8]) was found to be 5.7 ± 0.5 nM.

In general, melting point refers to the temperature of the solid-liquid transition. Compound `CCC(CC)CC1(O)CCN(C(=O)Nc2cc(Oc3ccc(F)cc3)cc(Oc3ccc(OC)cc3)c2)CC1` [Compound 28a, 4-(2-Ethylbutyl)-N-(3-(4-fluorophenoxy)-5-(4-methoxyphenoxy)phenyl)-4-hydroxypiperidine-1-carboxamide] showed a melting point of 79 to 80 °C. In addition, the IC50 in data set [2] (setting [8]) came out at 188 nM.

`CCC(CC)CC1(O)CCN(C(=O)Nc2cc(Oc3ccc(F)cc3)cc(Oc3ccc4c(c3)CCN(C)C4=O)c2)CC1` [Compound 28b, 4-(2-Ethylbutyl)-N-(3-(4-fluorophenoxy)-5-((2-methyl-1-oxo-1,2,3,4-tetrahydroisoquinolin-6-yl)oxy)phenyl)-4-hydroxypiperidine-1-carboxamide] had a melting point of 80 to 82 °C. For the same compound, the IC50 in data set [3] was > 1000 nM. Besides, the IC50 in data set [4] is > 1000 nM. Besides, the IC50 in data set [5] is > 1000 nM. Also, in data set [6], the IC50 was > 1000 nM.

In the case of `CCC(CC)CC1(O)CCN(C(=O)Nc2cc(Oc3ccc(F)cc3)cc(Oc3ccc4c(c3)CCNC4=O)c2)CC1` [Compound 28c, 4-(2-Ethylbutyl)-N-(3-(4-fluorophenoxy)-5-((1-oxo-1,2,3,4-tetrahydroisoquinolin-6-yl)oxy)phenyl)-4-hydroxypiperidine-1-carboxamide], the melting point lay in the range of 81 to 83 °C. In data set [3], the IC50 was > 1000 nM. In addition, the IC50 in data set [4] was > 1000 nM. The IC50 in data set [5] is > 1000 nM. The IC50 in data set [6] is > 1000 nM.

As to `CCC(CC)CC1(O)CCN(C(=O)Nc2cc(Oc3ccc(F)cc3)cc(Oc3ccc(C(=O)NCCF)cc3)c2)CC1` [Compound 28d, 4-(2-Ethylbutyl)-N-(3-(4-((2-fluoroethyl)carbamoyl)phenoxy)-5-(4-fluorophenoxy)phenyl)-4-hydroxypiperidine-1-carboxamide], the melting point lay in the range of 79 to 82 °C. Moreover, in data set [3], the IC50 was > 1000 nM. Moreover, the IC50 in data set [4] is > 1000 nM. The 50% inhibitory concentration (IC50) in data set [2] (setting [9]) was 66.7 ± 7.8 nM. Also, the IC50 in data set [5] was > 1000 nM. The IC50 in data set [6] is > 1000 nM.

`CCC(CC)CC1(O)CCN(C(=O)Nc2cc(Oc3ccc(F)cc3)cc(Sc3ccc(S(C)(=O)=O)cc3)c2)CC1` [Compound 28e, 4-(2-Ethylbutyl)-N-(3-(4-fluorophenoxy)-5-((4-(methylsulfonyl)phenyl)thio)phenyl)-4-hydroxypiperidine-1-carboxamide] displayed a melting point of 78 to 80 °C. Further, the IC50 in data set [3] is > 1000 nM. The IC50 in data set [4] was > 1000 nM. Further, in data set [2] (setting [8]), the IC50 stood at 14.6 nM. In data set [5], the IC50 was > 1000 nM. In data set [6], the IC50 is > 1000 nM.

The compound `CC(C)CC1(O)CCN(C(=O)Nc2cc(Oc3ccc(F)cc3)cc(Sc3ccc(S(C)(=O)=O)cc3)c2)CC1` [Compound 28g, N-(3-(4-Fluorophenoxy)-5-((4-(methylsulfonyl)phenyl)-thio)phenyl)-4-hydroxy-4-isobutylpiperidine-1-carboxamide] came in with a melting point of 79 to 81 °C. In addition, the IC50 in data set [3] is > 1000 nM. For the same compound, the IC50 in data set [4] was > 1000 nM. Besides, the IC50 in data set [2] (setting [9]) is 38.5 ± 6.3 nM. Besides, in data set [5], the IC50 is > 1000 nM. Further, the IC50 in data set [6] is > 1000 nM.

As for `Cc1nn(C)c2nc(NNC(=O)Nc3cc(Cl)nc(Cl)c3)cc(C(C)C)c12` [JTE-013, reference compound], the IC50 in data set [3] ([^32P]S1P competition, Table 2) is > 1000 nM; in data set [4] ([^32P]S1P competition, Table 2), > 1000 nM; in data set [5] ([^32P]S1P competition, Table 2), > 1000 nM; in data set [6] ([^32P]S1P competition, Table 2), > 1000 nM.

For `COc1cc(OC)c(NC(=O)Cn2c(=O)n(CC(=O)Nc3ccccc3OC)c(=O)c3ccccc32)cc1Cl` [TZ59-134, N-(5-Chloro-2,4-dimethoxyphenyl)-2-(3-(2-((2-methoxyphenyl)amino)-2-oxoethyl)-2,4-dioxo-3,4-dihydroquinazolin-1(2H)-yl)acetamide], the IC50 in data set [3] (Table 5) is > 1000 nM; in data set [4] (Table 5), > 1000 nM; in data set [2] (Table 5, read-out: IC50 S1PR2) it was 6.3 ± 0.9 nM; in data set [5] (Table 5), > 1000 nM; in data set [6] (Table 5), > 1000 nM.

For orientation: tissue uptake means the percentage of the injected dose found per gram of tissue. With `COc1ccc(NC(=O)Cn2c(=O)c3ccccc3n(CC(=O)Nc3cc(Cl)c(OC)cc3OC)c2=O)cc1` [[^11C]2c], in data set [7] (EAE mice versus control), the “uptake in brain, blood, heart, lung, and pancreas” value was “increased uptake”. Moreover, the figures for the tissue uptake in data set [7] (EAE mice) and in data set [7] (control mice) were 0.699 %ID/g and 0.452 %ID/g, respectively.
